Like-named read-outs stand apart in the source and are kept apart here.

1 substance from patent US20220170028A1, “NOVEL INTERLEUKIN-2 VARIANTS AND BIFUNCTIONAL FUSION MOLECULES THEREOF” (Cugene Inc, priority 2019, published 2022) can be followed below.

One data set has as its target T1, IL-2Rβ and γc complex (Homo sapiens, UniProt P14784+P31785).
T1 construct: IL-2R6-ECD (NP_000869); γc-ECD (NP_000197)
T1 sequence (P14784 27-240 limits assumed): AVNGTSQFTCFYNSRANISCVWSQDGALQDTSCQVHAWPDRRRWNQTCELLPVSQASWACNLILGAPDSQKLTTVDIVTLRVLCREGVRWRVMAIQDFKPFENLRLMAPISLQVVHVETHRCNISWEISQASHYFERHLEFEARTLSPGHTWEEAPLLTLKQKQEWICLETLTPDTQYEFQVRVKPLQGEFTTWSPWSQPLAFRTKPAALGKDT
T1 sequence (P31785 23-262 limits assumed): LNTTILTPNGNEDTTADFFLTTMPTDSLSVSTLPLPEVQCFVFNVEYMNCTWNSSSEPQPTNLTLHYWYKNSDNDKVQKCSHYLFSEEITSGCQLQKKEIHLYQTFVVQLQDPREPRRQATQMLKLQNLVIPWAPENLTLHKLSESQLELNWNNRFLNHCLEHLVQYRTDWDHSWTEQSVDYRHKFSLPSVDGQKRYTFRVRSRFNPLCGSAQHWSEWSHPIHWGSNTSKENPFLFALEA
Put plainly: ELISA binding to IL-2Rβ and γc complex. On the procedure:
Briefly, non-covalent complex of IL-2R6-ECD (NP_000869) and γc-ECD (NP_000197) through heterodimeric Fc chains was coated onto the wells of Nunc Maxisorp 96-well microplates at 2 μg/well. After overnight incubation at 4° C. and blocking with superblock (ThermoFisher), 3-fold serial dilutions of IL-2 Fc fusion proteins starting at either 100 or 270 nM were added to each well at 100 Following a one-hour incubation at room temperature, biotin mouse anti-human IL-2 Ab (BD BioSciences) at 1 μg/ml was added to each well followed by incubation with HRP-Avidin (ThermoFisher) at 1 μg/ml for 1 hour. Wells were thoroughly aspirated and washed three times with PBS/0.05% Tween-20 following each step. Finally, 100 TMB substrate was added to each well; the plate was developed at room temperature in the dark for 10 minutes, and 100 of stop solution (2N Sulfuric acid, Ricca Chemical) was added. Absorbance was determined at 450 nm; curves were fit using Prism software (Graph Pad) and illustrated in FIG. 11E.
In general terms: An ELISA detects its analyte on a solid surface through an enzyme-linked reagent.

Another data set relates to Treg cells. Kind of data set: Treg proliferation and expansion in mice after a single s.c. injection of bifunctional constructs (Example 17). It is filed as in vivo, mouse. The conditions noted are these: 15 nmol/kg single s.c., C57/BL6 mice. On the procedure: IL-2 variant tocilizumab bifunctional proteins P-0536, P-0546, P-0559, and P-0560 along with IL-2 variant Fc fusion protein P-0511 were administered to mice, and their ability to preferentially proliferate and expand regulatory T cells (CD4+CD25+FoxP3+ T cells) over effector T cells and NK cells were determined in vivo.
Female C57/BL6 mice (7-week old) were received from Charles River Laboratory and acclimated in house for at least 7 days before the study. Vehicle (PBS) and 15 nmol/kg each test compounds were subcutaneously administered to mice on day 0. Peripheral blood samples were collected into heparin-treated tubes on days 2, 4 and 8 post-treatment. Each group contained 5 mice and baseline blood was collected 3 days prior to the treatment (day −3).

Data set [1] can be described thus: Transient expression level of IL-2 Fc fusion constructs in HEK-293F cells. The conditions noted are these: Isoleucine-125 constructs. The protocol:
The constructs were produced by co-transfecting HEK293-F cells growing in suspension with the mammalian expression vectors using polyethylenimine (PEI, 25,000 MW linear, Polysciences). If there were two or more expression vectors, the vectors were transfected in a 1:1 ratio. For transfection, HEK293 cells were cultivated in serum free FreeStyle™ 293 Expression Medium (ThermoFisher). For production in 1000 ml shaking flasks (working volume 330 mL), HEK293 cells were seeded at a density of 0.8×10^6 cells/ml 24 hours before transfection. A total of 330 μg of DNA expression vectors were mixed with 16.7 ml Opti-mem Medium (ThermoFisher). After addition of 0.33 mg PEI diluted in 16.7 ml Opti-mem Medium, the mixture was vortexed for 15 sec and subsequently incubated for 10 min at room temperature. The DNA/PEI solution was then added to the cells and incubated at 37° C. in an incubator with 8% CO2. Sodium butyrate (Millipore Sigma) was added to the cells at day 4 at a final concentration of […] to help sustain protein expression. After 6 days cultivation, supernatant was collected for purification by centrifugation for 20 min at 2200 rpm. The solution was sterile filtered (0.22 μm filter, Corning). The secreted protein was purified from cell culture supernatants using Protein A affinity chromatography.
S125I substitution was thus introduced into a number of IL-2 variant Fc fusion molecules. The constructs harboring Ile-125 substitution in IL-2 were expressed using the same vector and in the same culturing conditions as their Ser-125 counterparts and purified using MabSelectSure. The expression level in mg/L and purity assessed by SEC chromatography in aggregation % of exemplary molecules are summarized in Table 6. The two molecules in the same row of Table 6 share the same other amino acid substitution(s) and differ only at residue 125 with either serine or isoleucine. As an example, the SEC chromatogram and SDS-PAGE pictures of P-0447 (SEQ ID NO: 173) and its Ile-125 counterpart P-0511 (SEQ ID NO: 213) were further illustrated in FIGS. 1D and 1E.

Data set [2] has as its system STAT5 phosphorylation in NK cells. Put plainly: STAT5 phosphorylation in CD56+ NK cells, human PBMC. It is filed as cell-based. The source says: The Stat5 phosphorylation activity on other responder cells than CD4+ T cell subsets, including CD8+T and NK, by P-0511 was compared to P-0531, the S125I equivalent of wild-type P-0250. […] IL-2 receptors expressed on CD4+ Tconv, CD8+T and NK cells are primarily dimeric IL-2Rs, comprising IL-2R6 and γc.

For data set [3], the system named is CD4+/Foxp3+/CD25+ Treg, CD4+/Foxp3-/CD25+ Teff and CD4+/Foxp3-/CD25- naive T cells. Put plainly: STAT5 phosphorylation in three CD4+ T cell subsets (Treg, CD4 effector, CD4 naive), human PBMC. It is filed as cell-based. The text has this: In addition to being assessed for their ability to differentially stimulate Stat5 phosphorylation in CD4 positive Treg (CD4+/Foxp3+/CD25^high) versus Tconv (CD4+/Foxp3−/CD25^low) cells, two variants, P-0511 and P-0512, were further assayed for their ability to stimulate other effector T and NK cells, including CD4 positive Teff (CD4+/Foxp3-/CD25+), CD8 cytotoxic T effector and NK cells in comparison to wild-type IL-2 (P-0250) and three IL-2 benchmark molecules containing V91K, N88R, N88D respectively.
After human PBMC Cells were treated with serial dilutions of test compounds, fixed and permeabilized, washed, and stained with a mixture of anti-CD25-PE, anti-FOXP3-APC, anti-pSTAT5-FITC, and anti-CD4-PerCP-Cy5.5 antibodies, the flow cytometry analysis was gated into CD4+/Foxp3+/CD25+, CD4+/Foxp3−/CD25+, CD4+/Foxp3−/CD25− groups for the Treg, CD4 effector, and CD4 naive T cell subsets, respectively. Data are expressed as a percent of pStat5 positive cells in gated population and illustrated in FIG. 9.

For “P-0511: IL-2 L19H/S125I/Q126E Fc fusion, SEQ ID NO: 213”, in the data set with IL-2Rβ and γc complex, the “binding to IL-2 dimeric receptor complex, EC50” value is “did not show appreciable binding”. Moreover, in the data set with Treg cells, the “potency in inducing Treg cell proliferation and expansion in vivo (in words)” value is “comparable in vivo Treg stimulation efficacy as P-0560”. Moreover, in data set [1], the “Expression” value is 26.6 mg/L. The “STAT5 phosphorylation activity in NK cells (in words)” value in data set [2] is recorded as “nearly completely abolished”. Moreover, the “pSTAT5 activity profile in Treg, Teff and naive CD4 T cell subsets (in words)” value in data set [3] is “preferential activation of Treg over Teff”; in data set [3] (listed as P-511) it was “superior to both Benchmark-2 and -3”.
